Data on 33 compounds can be found in ChEMBL document CHEMBL1157430, “Design, synthesis, and structure-activity relationship study of a novel class of ORL1 receptor antagonists based on N-biarylmethyl spiropiperidine” (Bioorg Med Chem Lett, 2008).

A value given as a limit tells only on which side of the number the result lay.

Data set [1] can be described thus: Lipophilicity Log D at pH 7.4 by shake flask method. The format is physicochemical. As to conditions: buffer.
Data set [2] in a line: Displacement of [125I]Tyr14-NC/OFQ from human ORL1 expressed in CHO cells. The class given is cell-based. The settings on record: read-out: I50.
A short description of data set [3]: Antagonist activity at human ORL1 expressed in CHO cells by GTPgammaS binding assay. The class given is cell-based. As to conditions: read-out: I50.
Another data set has as its system CHO. The data set can be described thus: Displacement of [125I]Tyr14-NC/OFQ from human ORL1 expressed in CHO cells at 1 uM. The format is cell-based.
For data set [4], the target named is Kappa-type opioid receptor (Homo sapiens, UniProt P41145). Description: Displacement of [3H]U69593 from human cloned kappa opioid receptor expressed in CHO cells. The format is cell-based.
Kappa-type opioid receptor, sequence (P41145 whole entry): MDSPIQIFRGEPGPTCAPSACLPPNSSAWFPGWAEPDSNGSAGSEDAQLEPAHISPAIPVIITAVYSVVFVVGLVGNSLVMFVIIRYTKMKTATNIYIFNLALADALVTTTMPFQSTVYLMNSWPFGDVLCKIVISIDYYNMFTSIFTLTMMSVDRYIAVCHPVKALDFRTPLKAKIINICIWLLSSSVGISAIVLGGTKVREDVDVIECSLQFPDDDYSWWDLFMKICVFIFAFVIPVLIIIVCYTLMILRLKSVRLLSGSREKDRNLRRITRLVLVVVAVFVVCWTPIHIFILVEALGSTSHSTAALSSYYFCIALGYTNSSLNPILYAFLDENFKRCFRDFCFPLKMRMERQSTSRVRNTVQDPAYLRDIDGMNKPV
The next data set concerns the target Mu-type opioid receptor (Homo sapiens, UniProt P35372). Description: Displacement of [3H]diprenorphin from human cloned mu opioid receptor expressed in CHO cells. The format is cell-based.
Data set [5] in a line: Metabolic stability in human liver microsomes at 1 uM after 30 mins. The format is ADME, Microsome. The settings on record: read-out: Stability.
Data set [6] can be described thus: Metabolic stability in rat liver microsomes at 1 uM after 30 mins. As to conditions: read-out: Stability. The format is ADME, Microsome.
Data set [7] has as its target Voltage-gated inwardly rectifying potassium channel KCNH2 (Homo sapiens, UniProt Q12809). The data set can be described thus: Displacement of [35S]MK499 from human ERG in HEK293 cell membrane.

Mu-type opioid receptor, sequence (P35372 whole entry): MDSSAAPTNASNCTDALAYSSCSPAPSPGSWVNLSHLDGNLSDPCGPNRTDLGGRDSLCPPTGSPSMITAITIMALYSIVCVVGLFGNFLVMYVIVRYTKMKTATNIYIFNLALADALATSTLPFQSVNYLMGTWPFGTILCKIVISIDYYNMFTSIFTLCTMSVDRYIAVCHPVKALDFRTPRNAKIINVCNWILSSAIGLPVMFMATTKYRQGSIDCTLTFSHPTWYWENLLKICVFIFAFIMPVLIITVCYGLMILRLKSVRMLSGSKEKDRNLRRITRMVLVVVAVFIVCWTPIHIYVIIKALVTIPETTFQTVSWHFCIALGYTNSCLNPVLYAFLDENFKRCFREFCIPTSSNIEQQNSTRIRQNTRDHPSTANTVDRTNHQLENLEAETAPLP
Voltage-gated inwardly rectifying potassium channel KCNH2, sequence (Q12809 whole entry): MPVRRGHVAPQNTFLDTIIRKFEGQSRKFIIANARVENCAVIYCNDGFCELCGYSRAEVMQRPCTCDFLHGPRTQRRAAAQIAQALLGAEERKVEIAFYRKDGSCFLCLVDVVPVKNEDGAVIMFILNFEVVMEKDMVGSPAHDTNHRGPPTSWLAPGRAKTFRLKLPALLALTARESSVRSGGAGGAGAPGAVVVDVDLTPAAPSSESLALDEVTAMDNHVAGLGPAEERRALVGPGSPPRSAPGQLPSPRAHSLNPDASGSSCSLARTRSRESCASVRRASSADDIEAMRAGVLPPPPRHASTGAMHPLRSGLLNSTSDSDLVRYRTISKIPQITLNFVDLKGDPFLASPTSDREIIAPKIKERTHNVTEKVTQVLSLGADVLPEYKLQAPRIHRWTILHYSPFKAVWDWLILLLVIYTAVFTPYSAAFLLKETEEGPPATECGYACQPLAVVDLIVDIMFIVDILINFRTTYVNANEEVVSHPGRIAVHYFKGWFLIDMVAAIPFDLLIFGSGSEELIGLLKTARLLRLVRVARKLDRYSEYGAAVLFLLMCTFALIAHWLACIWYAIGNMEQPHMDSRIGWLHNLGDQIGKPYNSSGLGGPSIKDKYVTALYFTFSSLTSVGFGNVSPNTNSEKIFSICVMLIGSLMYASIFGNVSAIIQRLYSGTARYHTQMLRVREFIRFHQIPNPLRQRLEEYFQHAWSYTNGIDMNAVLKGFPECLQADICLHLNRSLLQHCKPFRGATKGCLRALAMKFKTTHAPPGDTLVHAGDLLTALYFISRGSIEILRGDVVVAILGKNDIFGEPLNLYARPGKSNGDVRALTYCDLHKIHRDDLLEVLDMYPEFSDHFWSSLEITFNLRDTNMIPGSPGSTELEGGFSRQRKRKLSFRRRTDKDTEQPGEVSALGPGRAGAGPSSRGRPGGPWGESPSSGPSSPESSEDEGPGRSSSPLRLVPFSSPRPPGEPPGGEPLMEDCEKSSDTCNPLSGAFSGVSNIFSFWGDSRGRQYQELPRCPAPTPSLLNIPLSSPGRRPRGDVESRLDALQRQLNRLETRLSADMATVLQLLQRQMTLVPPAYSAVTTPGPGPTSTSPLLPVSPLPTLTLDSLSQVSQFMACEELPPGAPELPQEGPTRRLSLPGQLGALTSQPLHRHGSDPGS

The compound `Cc1nn(-c2ccccn2)cc1CN1CCC2(CC1)OCc1ccccc12` came in with a pH-dependent lipophilicity (logD) in data set [1] of 3.1. For the same compound, the IC50 in [2] was determined as 12 nM; in [3], 16 nM.

For `c1ccc(-n2cc(CN3CCC4(CC3)OCc3ccccc34)cn2)cc1`, the IC50 in [2] worked out at 40 nM.

Take `c1cncc(-c2ccccc2CN2CCC3(CC2)OCc2ccccc23)c1`: the inhibition in the data set with CHO came to 31%. In [2], the IC50 is over 1000 nM.

Compound `CC(=O)Nc1cccnc1-n1cc(CN2CCC3(CC2)OCc2ccccc23)c(C)n1` displayed a logD in [1] of 3.2. Also, the IC50 in data set [2] is 27 nM.

The compound `Cc1nn(-c2ncccc2Cl)cc1CN1CCC2(CC1)OCc1ccccc12` returned a log distribution coefficient (logD) in data set [1] of 3.1. The IC50 was over 10000 nM in data set [4], 4.5 nM in [2], 7400 nM at Mu-type opioid receptor and 2.7 nM in data set [3]. Besides, the remaining at 0.5 h, 1 µM in data set [5] is 60%; in data set [6], 6%.

On to `Cc1nn(-c2ncccn2)cc1CN1CCC2(CC1)OCc1ccccc12`, for which, in [1], the logD is 2.9. Further, in [2], the IC50 was 93 nM.

With `Cc1nn(-c2ccccc2)cc1CN1CCC2(CC1)OCc1ccccc12`, the log distribution coefficient (logD) in data set [1] was over 4. The IC50 came out at 9700 nM in data set [4], 6.9 nM in [2], 3200 nM on Mu-type opioid receptor and 1.6 nM in [3]. Besides, the remaining at 0.5 h, 1 µM in data set [5] came out at 28%; in [6], 4%.

Consider `c1ccc(-c2csc(CN3CCC4(CC3)OCc3ccccc34)n2)cc1`, for which, in the data set with CHO, the inhibition was -7%. In addition, in data set [2], the IC50 is over 1000 nM.

`c1ccc(Cc2nn(-c3ccccc3)cc2CN2CCC3(CC2)OCc2ccccc23)cc1`: the IC50 in data set [2] is 30 nM.

For `c1cc(CN2CCC3(CC2)OCc2ccccc23)cc(-c2ccncc2)c1`, in the data set with CHO, the inhibition is 18%. In addition, in data set [2], the IC50 is over 1000 nM.

Turning to `CCc1nn(-c2ccccc2)cc1CN1CCC2(CC1)OCc1ccccc12`, the values for the IC50 in data set [2] and in data set [3] were 9.4 nM and 8.4 nM, respectively.

Compound `Cc1ccnc(-n2cc(CN3CCC4(CC3)OCc3ccccc34)c(C)n2)c1` displayed a logD in [1] of 3.2. Besides, the IC50 in data set [2] is 19 nM; in data set [3] it was 45 nM.

Turning to `Cc1nn(-c2ccccc2Cl)cc1CN1CCC2(CC1)OCc1ccccc12`, in data set [1], the logD turned out to be 3.7. In addition, the values for the IC50 in data set [2] and in [3] were 0.65 nM and 0.87 nM, respectively.

`Cc1nn(-c2cccc(Cl)n2)cc1CN1CCC2(CC1)OCc1ccccc12` came in with a logD in data set [1] of 3.9. For the same compound, the IC50 in data set [2] turned out to be 43 nM.

Consider `c1ccc(-n2nccc2CN2CCC3(CC2)OCc2ccccc23)cc1`, for which the inhibition in the data set with CHO was -2%. Further, the IC50 in data set [2] was over 1000 nM.

Compound `CNC(=O)c1cccnc1-n1cc(CN2CCC3(CC2)OCc2ccccc23)c(C)n1` gave a logD in data set [1] of 1.4. For the same compound, the IC50 in data set [2] worked out at 22 nM.

For the compound `c1ccc(-c2nc(CN3CCC4(CC3)OCc3ccccc34)cs2)cc1`, the inhibition with CHO is 3%. Besides, the IC50 in data set [2] was over 1000 nM.

Take `c1cncc(-c2ccc(CN3CCC4(CC3)OCc3ccccc34)cc2)c1`: the inhibition in the data set with CHO amounted to 15%. In data set [2], the IC50 was over 1000 nM.

Regarding `CC(C)c1nn(-c2ccccc2)cc1CN1CCC2(CC1)OCc1ccccc12`, the IC50 in [2] was 21 nM.

`Cc1nn(-c2cccnc2)cc1CN1CCC2(CC1)OCc1ccccc12` displayed a log distribution coefficient (logD) in data set [1] of 3.2. In data set [2], the IC50 came to 130 nM.

Take `c1ccc(-c2cccc(CN3CCC4(CC3)OCc3ccccc34)c2)nc1`: the IC50 in [2] came to 310 nM.

For the compound `c1ccc(-n2cc(CN3CCC4(CC3)OCc3ccccc34)nn2)cc1`, the IC50 in [2] came out at 190 nM.

With `Cc1nn(-c2ncccc2NS(C)(=O)=O)cc1CN1CCC2(CC1)OCc1ccccc12`, the pH-dependent lipophilicity (logD) in [1] stood at 2.1. In addition, the IC50 in [2] was 11 nM.

Turning to `Cc1nn(-c2c(Cl)cccc2NS(C)(=O)=O)cc1CN1CCC2(CC1)OCc1ccccc12`, the pH-dependent lipophilicity (logD) in [1] stood at 2.1. In addition, the IC50 is over 10000 nM in data set [4]; 17000 nM in data set [7]; 1.9 nM in data set [2]; over 10000 nM on Mu-type opioid receptor; 0.53 nM in data set [3]. Further, the results for the remaining at 0.5 h, 1 µM in data set [5] and in data set [6] were 54% and 69%, respectively.

Regarding `Cc1nn(-c2ccc(Cl)cn2)cc1CN1CCC2(CC1)OCc1ccccc12`, the pH-dependent lipophilicity (logD) in data set [1] was 3.5. Besides, the IC50 in data set [2] was found to be 280 nM.

`Cc1nn(-c2cnccn2)cc1CN1CCC2(CC1)OCc1ccccc12`: the pH-dependent lipophilicity (logD) in data set [1] was 3.5. Further, in [2], the IC50 stood at 200 nM.

As for `Cc1nn(-c2ccccc2)c(C)c1CN1CCC2(CC1)OCc1ccccc12`, the IC50 in data set [2] stood at 13 nM.

`Cc1c(CN2CCC3(CC2)OCc2ccccc23)cnn1-c1ccccc1`: in [2], the IC50 is 100 nM.

For the compound `Cc1nn(-c2ccccc2)nc1CN1CCC2(CC1)OCc1ccccc12`, the inhibition with CHO stood at 36%. The IC50 in [2] is over 1000 nM.

Turning to `c1cncc(-c2cccc(CN3CCC4(CC3)OCc3ccccc34)c2)c1`, in the data set on CHO, the inhibition turned out to be 45%. Moreover, the IC50 in [2] is over 1000 nM.

For `Cc1cccnc1-n1cc(CN2CCC3(CC2)OCc2ccccc23)c(C)n1`, the logD in data set [1] was found to be 2.7. In addition, the IC50 in [4] is over 10000 nM; in data set [7], 13000 nM; in [2] it was 2.6 nM; at Mu-type opioid receptor it was 4400 nM; in data set [3], 2.6 nM. Besides, the remaining at 0.5 h, 1 µM was 64% in data set [5] and 1% in data set [6].

For the compound `CC(C)(C)c1nn(-c2ccccc2)cc1CN1CCC2(CC1)OCc1ccccc12`, the IC50 in data set [2] came out at 59 nM.

`Cc1nn(-c2ccncc2)cc1CN1CCC2(CC1)OCc1ccccc12` gave a logD in data set [1] of 3.7. For the same compound, the IC50 in data set [2] is 820 nM.
